Measurements published in patent US7342137B1, “Cyclohexenone compounds from Antrodia camphorata and application thereof” (Golden Biotechnology Corporation, priority 2007, dated 2008).

Assays:
[1] = test system: human hepatic cancer cells, Hep 3B; experiment: In vitro Lovastatin add-on study (MTT), Hep 3B; type: cell-based; details: 0.0043 μg/ml Lovastatin 72 hours, 0 μg/ml formula 2
Protocol: (§1) The experiment was also carried out according to NCI anti-cancer drug screen in vitro model. The human hepatic cancer cells, Hep 3B and Hep G2 and MDA-MB-231 were separately cultivated in media containing fetal calf serum for 24 hours. The proliferated cells were washed once with PBS, then treated with 1× trypsin-EDTA and centrifuged at 1200 rpm for 5 minutes. The supernatant was discarded and the cell pellet was resuspended in 10 ml of fresh culture medium by gently shaking. The Hep 3B cells were treated with 0.0043 μg/ml of Lovastatin for 72 hours and Hep G2 cells were treated with 0.0017 μg/ml of Taxol for 72 hours before placing in a 96-well plate. 4-hydroxy-2,3-dimethoxy-6-methyl-5(3,7,11-trimethyl-dodeca-2,6,10-trienyl)-cyclohex-2-enone obtained from example 1 were added respectively into each of the 96 wells at the following concentrations: 0 μg/ml (the control group); 30, 10, 3, 1, 0.3, 0.1 and 0.03 μg/ml (the experiment group). The cells were incubated at 37° C. in a 5% CO2 incubator for 48 hours. MTT was added in a concentration of 2.5 mg/ml into each well in dark and reacted for 4 hours, followed by the addition of 100 μl of lysis buffer to stop the reaction. The plates were read on an ELISA reader at wavelength of 570 nm to determine the survival rates.

[2] = test system: human prostate cancer cells, LNCaP; experiment: In vitro Taxol add-on study (MTT), prostate cancer cells LNCaP; type: cell-based; details: LNCaP (0.0017 μg/ml Taxol) as printed in Table 6; 0 μg/ml formula 2
Protocol: as §1, with “human prostate” for “human hepatic”, “cells, LNCaP” for “cells, Hep 3B”, “and DU-145” for “and Hep G2 and MDA-MB-231”, “The LNCaP cells were treated with 0.0017 μg/ml of Taxol for 72 hours and DU-145” for “The Hep 3B”, “0.0043” for “0.0043 μg/ml of Lovastatin for 72 hours and Hep G2 cells were treated with 0.0017”

[3] = test system: human breast-cancer cells, MCF-7; experiment: In vitro Taxol add-on study (MTT), MCF-7; type: cell-based; details: 0.0017 μg/ml Taxol 72 hours, 0 μg/ml formula 2
Protocol: as §1, with “breast-cancer” for “hepatic cancer”, “MCF-7” for “Hep 3B and Hep G2”, “The” for “The Hep 3B”, “placed” for “treated with 0.0043 μg/ml of Lovastatin for 72 hours and Hep G2 cells were treated with 0.0017 μg/ml of Taxol for 72 hours before placing”, “plate after 0.0017 μg/ml Taxol was added and treated for 72 hours.” for “plate.”, “terminate” for “stop”

[4] = test system: human breast-cancer cells, MDA-MB-231; experiment: In vitro Taxol add-on study (MTT), MDA-MB-231; type: cell-based; details: 0.0017 μg/ml Taxol 72 hours, 0 μg/ml formula 2
Protocol: as §1, with “breast-cancer” for “hepatic cancer”, “MCF-7” for “Hep 3B and Hep G2”, “The” for “The Hep 3B”, “placed” for “treated with 0.0043 μg/ml of Lovastatin for 72 hours and Hep G2 cells were treated with 0.0017 μg/ml of Taxol for 72 hours before placing”, “plate after 0.0017 μg/ml Taxol was added and treated for 72 hours.” for “plate.”, “terminate” for “stop”

[5] = test system: human prostate cancer cells, DU-145; experiment: In vitro Taxol add-on study (MTT), prostate cancer cells DU-145; type: cell-based; details: DU-145 (0.0043 μg/ml Taxol) as printed in Table 6; 0 μg/ml formula 2
Protocol: as §1, with “human prostate” for “human hepatic”, “cells, LNCaP” for “cells, Hep 3B”, “and DU-145” for “and Hep G2 and MDA-MB-231”, “The LNCaP cells were treated with 0.0017 μg/ml of Taxol for 72 hours and DU-145” for “The Hep 3B”, “0.0043” for “0.0043 μg/ml of Lovastatin for 72 hours and Hep G2 cells were treated with 0.0017”

[6] = test system: human hepatic cancer cells, Hep G2; experiment: In vitro Taxol add-on study (MTT), Hep G2; type: cell-based; details: 0.0017 μg/ml Taxol 72 hours, 0 μg/ml formula 2
Protocol: as §1

[7] = test system: Human low density lipoprotein (LDL); experiment: In vitro antioxidant activity study (Cu2+-induced LDL oxidation, diene formation); type: biochemical; details: for Tlag: LDL oxidised with 5 μM CuSO4; for Capacity values: capacity value 1 = 2 μM Trolox; for ΔTlag: difference between Tlag and Tlag0 (H2O)
Protocol: Human low density lipoprotein (LDL) oxidated with copper ion (Cu^2+) has been widely employed to assess antioxidant activities of samples to be assayed. Antioxidant activity of a sample is determined by the diene contents of LDL after oxidation and expressed in Trolox equivalents by using a standard curve calculated from the water-soluble vitamin E analogue Trolox standards (the antioxidant capacity value of 1 is expressed in terms of 2 μM of Trolox).
The following solutions were prepared firstly: double distilled water (the negative control group), 5 mM sodium phosphate buffer (SPB), 1 μM and 2 μM Trolox solution (the positive control group), and 40 μg/ml 4-hydroxy-2,3-dimethoxy-6-methyl-5(3,7,11-trimethyl-dodeca-2,6,10-trienyl)-cyclohex-2-enone isolated from example 1. The concentration of LDL cholesterol (LDL-C) was determined using enzyme reaction method, which was diluted to 0.1-0.25 mg/ml with 5 mM SPB. One hundred μl of the LDL was added into each well of a 96-well quartz plate, followed by addition of the abovementioned Trolox and the isolated compound from example 1. Standardized oxidizing agent CuSO4 was supplemented to induce oxidation at a final concentration of 5 μM in each 250 μl well. The plate was read on an ELISA reader at wavelength of 232 nm at 37 °C for 12 hours. The sampling time was 15 min.

CC[C@H](C)C(=O)O[C@H]1C[C@@H](C)C=C2C=C[C@H](C)[C@H](CC[C@@H]3C[C@@H](O)CC(=O)O3)[C@H]21 [Lovastatin, reference compound]
Cell survival rate (%) [1]: 61 ± 3%

CC(=O)O[C@H]1C(=O)[C@@]2(C)[C@H]([C@H](OC(=O)c3ccccc3)[C@]3(O)C[C@H](OC(=O)[C@H](O)[C@@H](NC(=O)c4ccccc4)c4ccccc4)C(C)=C1C3(C)C)[C@]1(OC(C)=O)CO[C@@H]1C[C@@H]2O [Taxol, reference compound]
Cell survival rate (%) [2]: 56 ± 3% | Cell survival rate (%) [3]: 65 ± 1% | Cell survival rate (%) [4]: 76 ± 3% | Cell survival rate (%) [5]: 70 ± 2% | Cell survival rate (%) [6]: 81 ± 2%

Cc1c(C)c2c(c(C)c1O)CCC(C)(C(=O)O)O2 (stereo not drawn) [Trolox]
Tlag ([7]; 1 μM Trolox): 266 min | Capacity values ([7]; 1 μM Trolox): 0.48 | ΔTlag ([7]; 1 μM Trolox): 81 min | Tlag ([7]; 2 μM Trolox): 344 min | Capacity values ([7]; 2 μM Trolox): 1.00 | ΔTlag ([7]; 2 μM Trolox): 159 min
